Literature values, collected in patent US9198859B2, “Concentrated mast cell stabilizing pharmaceutical formulations” (PARI Pharma GMBH, priority 2009, dated 2015).

How the values were obtained:
influenza virus = conditions: mice
[1] = system: respiratory syncytial virus; conditions: mice
[2] = 6 months; nebulized 3 times daily IsoCrom (20 mg/2 ml) via eFlow; children

SMILES: O=C(O)c1cc(=O)c2c(OCC(O)COc3cccc4oc(C(=O)O)cc(=O)c34)cccc2o1 [DSCG, disodium cromoglycate]
- protection from death induced by influenza virus infection (influenza virus): protected mice from death
- protection against RSV induced illness [1]: protected against respiratory syncytial virus induced illness
- therapeutic efficacy versus inhaled steroids [2]: as effective as inhaled steroids
